Measurements from patent US10898469B2, “Imidazolylamide derivative” (Sumitomo Dainippon Pharma Co., Ltd., priority 2016, dated 2021).
Like-named read-outs stand apart in the source and are kept apart here.

Tests used:
Type in all cases: cell-based, human
[1] = tested on: HCT-116 cells; test: Inhibition test for sphere-forming ability of cancer cells (Test Example 1), HCT-116; conditions: for IC50 / (100%-inhibition rate of cell proliferation) at 1 μmol/L, HCT-116: HCT-116 cells; for IC50: concentration for 50% inhibition of cell proliferation, read-out: IC50 (μmol/L) HCT-116 (Sphere IC50 value); for inhibitory effect on the sphere-forming ability of cancer cells: Test Example 1, summary in words, cell line not given (HCT-116, HT-29, FaDu tested); for (100%-inhibition rate of cell proliferation) at 1 μmol/L, HCT-116: value with %
Outline: (§1)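 HCT-116, HT-29 and FaDu cells seeded at 350-800 cells/well on ultra-low attachment plates in serum-free DMEM/F12 with B27, 20 ng/mL EGF, 10 ng/mL bFGF and 5 μg/mL insulin. Compound given at 0.1% DMSO for 4 days; viable cells measured by CellTiter-Glo to give Sphere IC50 (μmol/L).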

[2] = tested on: HT-29 cells; test: Inhibition test for sphere-forming ability of cancer cells (Test Example 1), HT-29; conditions: for IC50: concentration for 50% inhibition of cell proliferation, read-out: IC50 (μmol/L) HT-29 (Sphere IC50 value); for (100%-inhibition rate of cell proliferation) at 1 μmol/L, HT-29: value with %
Outline: as §1

[3] = tested on: FaDu cells; test: Inhibition test for sphere-forming ability of cancer cells (Test Example 1), FaDu; conditions: for IC50: concentration for 50% inhibition of cell proliferation, read-out: IC50 (μmol/L) FaDu (Sphere IC50 value); for (100%-inhibition rate of cell proliferation) at 1 μmol/L, FaDu: value with %
Outline: as §1

[4] = tested on: HCT-116 cells; test: Inhibition test for sphere-forming ability of cancer cells in the presence of BSA (Test Example 2), HCT-116; conditions: for IC50: HCT-116 cells, in the presence of 5% BSA, cultured 4 days; for inhibitory effect on the sphere-forming ability of cancer cells: Test Example 2, in the presence of 5% BSA, summary in words, cell line not given (HCT-116, HT-29, FaDu tested)
Method: Human colorectal cancer-derived HCT-116 cells, human colon-adenocarcinoma-derived HT-29 cells, and human pharyngeal cancer-derived FaDu cells were available from American Type Culture Collection (ATCC). HCT-116 cells and HT-29 cells were cultured at 37° C. under 5% CO2 using the McCoy's 5a medium containing 10% fetal bovine serum (FBS) and 1% penicillin/streptomycin, and FaDu cells were cultured at 37° C. under 5% CO2 using the MEM medium containing 10% FBS, 1% non-essential amino acid, 1% sodium pyruvate, 5% bovine serum albumin (BSA), and 1% penicillin/streptomycin. HCT-116 cells, HT-29 cells, and FaDu cells were seeded in a 384 Well Black Clear Bottom Ultra-Low Attachment Microplate (Corning Cat. No. 3827) in an amount of 350-800 cells/well using the DMEM/F12 medium containing 2% B27 supplement (GIBCO), 20 ng/mL epidermal growth factor (EGF) (peprotech), 10 ng/mL basic fibroblast growth factor (bFGF) (peprotech), 5 μg/mL insulin (Sigma), 5% bovine serum albumin (BSA), and 1% penicillin/streptomycin. Each test compound was added into each well to adjust the final concentration of DMSO to 0.1%, and the cells were cultured for 4 days. The number of viable cells in each well was then measured with CellTiter-Glo® Luminescent Cell Viability Assay (Promega) to calculate the concentration of each test compound for 50% inhibition of cell proliferation (Sphere IC50 value; μmol/L).
The experiment of Test Example 2 was performed for each compound of each Example.
The concentration of each test compound for 50% inhibition of cell proliferation (Sphere IC50 value; μmol/L) is shown in the following Table.

Row | SMILES | IC50 ([1]; Homo sapiens) | IC50 ([2]; Homo sapiens) | IC50 ([3]; Homo sapiens) | IC50 [1] | inhibitory effect on the sphere-forming ability of cancer cells [1] | IC50 [3] | other results
1 | COc1ccc(/C=C/C(=O)Nc2cn(Cc3cccc(C(F)(F)F)c3)cn2)cc1O [Example 31, (E)-3-(3-Hydroxy-4-methoxyphenyl)-N-(1-(3-(trifluoromethyl)benzyl)-1H-imidazol-4-yl)acrylamide] | 0.84 µmol/L | 0.65 µmol/L | < 0.01 µmol/L |  |  |  | IC50 ([4]; Homo sapiens, HCT-116, 96 h): 90 nM; inhibitory effect on the sphere-forming ability of cancer cells [4]: particularly potent inhibitory effect
2 | COc1ccc(C(=O)Nc2cn(Cc3cc(F)cc(C(F)(F)F)c3)cn2)cc1OC [Example 162] |  |  |  | 0.06 µmol/L | particularly potent inhibitory effect | 0.06 µmol/L | IC50 [4]: 510 nM
3 | Cn1cc(C(=O)Nc2cn(Cc3cccc(C(F)(F)F)c3)cn2)ccc1=O [Example 242, 1-Methyl-6-oxo-N-{1-[3-(trifluoromethyl)benzyl]-1H-imidazol-4-yl}-1,6-dihydropyridine-3-carboxamide] | 0.38 µmol/L | 0.29 µmol/L | 0.11 µmol/L |  | particularly potent inhibitory effect |  | IC50 ([4]; Homo sapiens, HCT-116, 96 h): 2140 nM
4 | N#Cc1ccc(/C=C/C(=O)Nc2cn(Cc3cccc(Cl)c3)cn2)cc1 [Example 22] | 0.08 µmol/L | < 0.01 µmol/L | 0.06 µmol/L |  | particularly potent inhibitory effect |  | IC50 ([4]; Homo sapiens, HCT-116, 96 h): 640 nM; inhibitory effect on the sphere-forming ability of cancer cells [4]: particularly potent inhibitory effect
5 | COc1ccc(C(=O)Nc2cn(Cc3ccc(F)c(C(F)(F)F)c3)cn2)cc1OC [Example 161] |  |  |  | 0.04 µmol/L | particularly potent inhibitory effect | < 0.01 µmol/L | IC50 [4]: 410 nM
6 | COc1ccc(C(=O)Nc2cn(Cc3ccc(F)c(Cl)c3)cn2)cc1OC [Example 160] |  |  |  | 0.07 µmol/L | particularly potent inhibitory effect | 0.07 µmol/L | IC50 [4]: 610 nM
7 | COc1ccc(/C=C/C(=O)Nc2cn(Cc3cccc(Cl)c3)cn2)cc1OCCO [Example 33, (2E)-N-[1-(3-chlorobenzyl)-1H-imidazol-4-yl]-3-[3-(2-hydroxyethoxy)-4-methoxyphenyl]prop-2-enamide] | 0.06 µmol/L | 0.01 µmol/L | < 0.01 µmol/L |  | particularly potent inhibitory effect |  | IC50 ([4]; Homo sapiens, HCT-116, 96 h): 590 nM; inhibitory effect on the sphere-forming ability of cancer cells [4]: particularly potent inhibitory effect
8 | COc1ccc(/C=C/C(=O)Nc2cn(Cc3cccc(Cl)c3)cn2)cc1O [Example 23, (E)-N-(1-(3-Chlorobenzyl)-1H-imidazol-4-yl)-3-(3-hydroxy-4-methoxyphenyl)acrylamide] | 0.61 µmol/L | 0.47 µmol/L | < 0.01 µmol/L |  |  |  | IC50 ([4]; Homo sapiens, HCT-116, 96 h): 370 nM; inhibitory effect on the sphere-forming ability of cancer cells [4]: particularly potent inhibitory effect
9 | COc1ccc(C(=O)Nc2cn(Cc3cc(F)cc(Cl)c3)cn2)cc1OC [Example 159] |  |  |  | 0.06 µmol/L | particularly potent inhibitory effect | 0.07 µmol/L | IC50 [4]: 610 nM
10 | COc1ccc(C(=O)Nc2cn(Cc3ccc(Cl)cc3)cn2)cc1OC [Example 158] |  |  |  | 0.57 µmol/L |  | 0.5 µmol/L | IC50 [4]: 4220 nM
11 | CS(=O)(=O)Nc1ccc(/C=C/C(=O)Nc2cn(Cc3cccc(Cl)c3)cn2)cc1 [Example 4, (E)-N-(1-(3-Chlorobenzyl)-1H-imidazol-4-yl)-3-(4-(methylsulfonamide)phenyl)acrylamide] | 5.79 µmol/L | 0.69 µmol/L | 0.67 µmol/L |  |  |  | IC50 ([4]; Homo sapiens, HCT-116, 96 h): 6400 nM
12 | O=C(Nc1cn(Cc2cc(F)c(F)c(F)c2)cn1)c1ccc(CO)cc1 [Example 175] |  |  |  | 0.29 µmol/L |  | 0.22 µmol/L | IC50 [4]: 770 nM
13 | CCCOc1ccc(C(=O)Nc2cn(Cc3cccc(Cl)c3)cn2)cn1 [Example 136] |  |  |  |  |  |  | (100%-inhibition rate of cell proliferation) at 1 μmol/L, HCT-116 [1]: 44.2%; (100%-inhibition rate of cell proliferation) at 1 μmol/L, HT-29 [2]: 71.8%; (100%-inhibition rate of cell proliferation) at 1 μmol/L, FaDu [3]: 75.2%
14 | CC(=O)Nc1ccc(/C=C/C(=O)Nc2cn(Cc3cccc(Cl)c3)cn2)cc1 [Example 9, (2E)-3-[4-(acetylamino)phenyl]-N-[1-(3-chlorobenzyl)-1H-imidazol-4-yl]prop-2-enamide] | 0.22 µmol/L | 0.03 µmol/L | 0.03 µmol/L |  | particularly potent inhibitory effect |  | IC50 ([4]; Homo sapiens, HCT-116, 96 h): 910 nM
15 | COc1cc(/C=C/C(=O)Nc2cn(Cc3cccc(Cl)c3)cn2)ccc1O [Example 24] | 7.42 µmol/L | > 10 µmol/L | 5.97 µmol/L |  |  |  | 
16 | O=C(/C=C/c1ccccc1O)Nc1cn(Cc2cccc(Cl)c2)cn1 [Example 54] |  |  |  | 8.38 µmol/L |  | 0.82 µmol/L | IC50 [2]: 8.11 µmol/L
17 | O=C(/C=C/c1ccc(N2CCOCC2)cc1)Nc1cn(Cc2cccc(Cl)c2)cn1 [Example 96] |  |  |  | 0.83 µmol/L | particularly potent inhibitory effect | 0.07 µmol/L | IC50 [2]: 0.09 µmol/L
18 | Cc1ccc(F)c(Cn2cnc(NC(=O)/C=C/c3cccc(Oc4ccccc4)c3)c2)c1F [Example 114] | 0.62 µmol/L | 0.69 µmol/L | 0.72 µmol/L |  |  |  | 
19 | O=C(Nc1cn(Cc2cccc(Cl)c2)cn1)c1ccc(OCC(F)(F)F)nc1 [Example 219] |  |  |  | 0.92 µmol/L |  | 9.4 µmol/L | IC50 [2]: 8.34 µmol/L
20 | CC(C)Oc1ccc(C(=O)Nc2cn(Cc3cccc(OC(F)(F)F)c3)cn2)cn1 [Example 215] |  |  |  | 0.88 µmol/L |  | 0.85 µmol/L | IC50 [2]: 0.66 µmol/L
21 | O=C(/C=C/c1ccc(C(F)(F)F)nc1)Nc1cn(Cc2cccc(Cl)c2)cn1 [Example 44] | 0.1 µmol/L | 0.05 µmol/L | 0.07 µmol/L |  |  |  | 
22 | COc1ccc(/C=C/C(=O)Nc2cn(Cc3cccc(Cl)c3)cn2)cc1Cl [Example 80] |  |  |  | > 10 µmol/L |  | 0.87 µmol/L | IC50 [2]: 7.04 µmol/L
23 | O=C(/C=C/c1ccc(Br)cc1)Nc1cn(Cc2cccc(Cl)c2)cn1 [Example 61] |  |  |  | 0.09 µmol/L | particularly potent inhibitory effect | 0.07 µmol/L | IC50 [2]: 0.02 µmol/L
24 | O=C(Nc1cn(Cc2cccc(Cl)c2)cn1)c1ccc(OCc2ccccc2)nc1 [Example 206] |  |  |  | 0.69 µmol/L | particularly potent inhibitory effect | 0.09 µmol/L | IC50 [2]: 0.09 µmol/L
25 | O=C(Nc1cn(Cc2cccc(C(F)(F)F)c2)cn1)c1ccc(=O)[nH]c1 [Example 199] |  |  |  |  |  |  | (100%-inhibition rate of cell proliferation) at 1 μmol/L, HCT-116 [1]: 39.8%; (100%-inhibition rate of cell proliferation) at 1 μmol/L, HT-29 [2]: 31.2%; (100%-inhibition rate of cell proliferation) at 1 μmol/L, FaDu [3]: 25.9%
